# Key:
# [1] = system: bitter taste perception of 48 Caucasian subjects; assay: Human psychophysical bitter taste tests (4-AFC recognition thresholds, gLMS intensity ratings); type: in vivo; details: for concentration perceived as weakly bitter, fold range across subjects / concentration perceived as weakly bitter, mode: gLMS weak intensity
# Description: All were pre-screened to avoid inclusion of individuals with health problems and overt taste pathologies; pregnant and breast-feeding women were also excluded. Each subject participated in the entire course of the study, which included one training session and nine experimental sessions. Visits consisted of DNA collection and psychophysical tests for genotyping and phenotypic analyses, respectively. General taste abilities were also assessed for the bitter, salty, sour, and sweet taste during the first session.
# Experiments were conducted at the sensory analysis laboratory of the German Institute of Human Nutrition Potsdam-Rehbruecke, according to good practice guidelines. […] Perceived bitter taste intensities were rated on the general Labelled Magnitude Scale (gLMS; [72–74]). […] For each 4-AFC test, four coded samples containing 10 ml solution were presented simultaneously; one containing the bitter tastant diluted in mineral water (Evian; Danone, Paris, France) and three containing mineral water only. At each concentration, subjects were challenged to identify the different sample, specify whether the quoted sample tasted bitter, and rate the perceived bitter intensity. Tests were performed with nose clips and oral rinsing, with a 45 s pause between concentrations. Training sessions were first used to familiarize subjects with the experimental procedures, and secondly, to assess general taste abilities. Concentration series consisted of geometric sequences of […], with a 1.5 common ratio and the following concentration ranges: 3.5x10^-5–2.0x10^-3M, 6.9x10^-4–4.0x10^-2 M, 2.6x10^-4–1.5x10^-2 M, 6.9x10^-4–4.0x10^-2 M, for salicin, sodium chloride, citric acid, and sucrose used as reference tastants for bitter, salty, sour, and sweet taste, respectively. Following training, subjects tested each tastant in triplicate over nine sessions. Latin square designs extended for first-order carry-over effects were used to counterbalance presentation order of the test compounds over the test sessions, across subjects and for each test compound, as well as presentation order of the samples at each concentration across both repetitions and subjects. Sensory sessions were monitored and data automatically collected (Fizz; Biosystèmes, Couternon, France).
# Detection and recognition probabilities of the bitter samples were analysed per repetition and subject. Relationships between probabilities (detection or recognition probabilities) and concentrations were fitted by a logistic regression model using the maximum-likelihood method. Threshold value and slope of the logistic curves were then obtained per repetition and subject, using a self-implemented toolbox (Matlab; The MathWorks Inc.). […] Where required, outliers were discarded according to the Peirce’s criterion. Perceived intensities, expressed in percentage of the scale length, were analysed similarly.
# TAS2R30-H1 = assay: Calcium imaging in HEK 293T Gα16gust44 cells transfected with TAS2R30-H1; type: cell-based, human; details: for threshold: first concentration eliciting significant receptor activation
# Description: (§1) Allelic responses to agonists were quantified using in vitro heterologous expression assays designed in previous studies of TAS2R receptor function, which successfully mimic responses in vivo with respect to both magnitude and concentration range [17, 23, 25, 26, 46]. DNA fragments containing TAS2R coding sequences were first amplified from genomic DNA by PCR using a proofreading polymerase (PfuUltra II Fusion HotStart DNA Polymerase; Agilent Technologies, Santa Clara, CA, USA) and cloned into a plasmid vector according to the manufacturer’s protocol (Zero Blunt TOPO PCR Cloning Kit; Life Technologies). A second PCR was performed using specific cloning primers to facilitate subcloning into the expression vector, which was then modified to add an N-terminal signal for cell surface localisation and a C-terminal epitope for immunocytochemical detection to the receptor sequence (Fast Link DNA Ligation Kit; Epicentre, Illumina Inc., Madison, WI, USA) (pcDNA5/FRT Mammalian Expression Vector; Life Technologies). Empty vector was used as a negative control.
# (§2) Functional assays were carried out in HEK 293T cells stably expressing the G protein chimera Gα16gust44 and transiently transfected with TAS2R alleles subcloned into the expression vector [78]. Calcium imaging was performed using an automated fluorometric imaging plate reader by exposing transfected cells to test compounds dissolved in assay buffer or to assay buffer alone (FLIPR Tetra; Molecular Devices, LLC, Sunnyvale, CA, USA). Changes in cytosolic calcium levels were monitored by measuring fluorescence intensity of a calcium-sensitive dye previously added (Fluo-4 AM; Life Technologies). Six replicates were carried out for each bitter stimulus, on separate experimental days, with each replicate consisting of concentration series of each bitter tastant.
# (§3) Prior to final analysis, fluorescence data from functional assays, expressed in relative fluorescence units (RFU), underwent three corrections. First, a correction calculated from baseline values was applied to compensate for well-to-well fluctuations. A second correction calculated from negative control values was applied to correct for receptor independent artefacts and signal drift. A third correction calculated from positive control values was applied to facilitate comparison of data obtained from different experimental days. Fluorescence ratios ((F-F0)/F0), obtained by subtracting the background fluorescence from fluorescence peak height and then dividing the difference by the background fluorescence, were then used for data analysis. Variance analyses were performed, followed by Bonferroni multiple comparisons tests (SPSS 20; IBM Corporation, Armonk, NY, USA). Threshold response values were then defined as the first concentration eliciting a significant activation of the receptor, with empty vector acting as a negative control. Finally, dose-response curves were fitted to the Hill equation by nonlinear regression in order to determine half maximal effective concentrations (EC50) and maximal amplitude (SigmaPlot; Systat Software Inc., Chicago, IL, USA).
# TAS2R30-H2 = assay: Calcium imaging in HEK 293T Gα16gust44 cells transfected with TAS2R30-H2; type: cell-based, human; details: for threshold: first concentration eliciting significant receptor activation
# Description: as §1, §2, §3
# TAS2R43-H1 = assay: Calcium imaging in HEK 293T Gα16gust44 cells transfected with TAS2R43-H1; type: cell-based, human; details: first concentration eliciting significant receptor activation
# Description: as §1, §2
# as §3, with “Threshold response values were then defined as the first concentration eliciting a significant activation of the receptor, with empty vector acting as a negative control. Finally, dose-response curves were fitted to the Hill equation by nonlinear regression in order to determine half maximal effective concentrations (EC50) and maximal amplitude (SigmaPlot; Systat Software Inc., Chicago, IL, USA).” left out
# TAS2R43-H2 = assay: Calcium imaging in HEK 293T Gα16gust44 cells transfected with TAS2R43-H2; type: cell-based, human; details: first concentration eliciting significant receptor activation
# Description: as §1, §2
# as §3, with “Threshold response values were then defined as the first concentration eliciting a significant activation of the receptor, with empty vector acting as a negative control. Finally, dose-response curves were fitted to the Hill equation by nonlinear regression in order to determine half maximal effective concentrations (EC50) and maximal amplitude (SigmaPlot; Systat Software Inc., Chicago, IL, USA).” left out
# TAS2R46-H1 = molecular target: T1, TAS2R46-H1 (Homo sapiens, UniProt P59540); assay: Calcium imaging in HEK 293T Gα16gust44 cells transfected with TAS2R46-H1; type: cell-based; details: for threshold: first concentration eliciting significant receptor activation
# T1 construct: N-terminal signal for cell surface localisation (N); expressed in transfected cells; host or cells: HEK 293T cells stably expressing the G protein chimera Gα16gust44
# T1 sequence (P59540 1-309): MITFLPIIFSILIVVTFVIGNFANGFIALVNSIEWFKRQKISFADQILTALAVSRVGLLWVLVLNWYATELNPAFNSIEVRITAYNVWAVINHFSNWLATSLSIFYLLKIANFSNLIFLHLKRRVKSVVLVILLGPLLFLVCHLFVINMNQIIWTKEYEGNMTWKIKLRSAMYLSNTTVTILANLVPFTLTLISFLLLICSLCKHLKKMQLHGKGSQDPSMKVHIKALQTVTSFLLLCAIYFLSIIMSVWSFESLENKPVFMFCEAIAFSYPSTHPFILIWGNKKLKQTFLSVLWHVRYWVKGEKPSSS
# Description: as §1, §2, §3
# TAS2R46-H2 = molecular target: T2, TAS2R46-H2 (Homo sapiens, UniProt P59540); assay: Calcium imaging in HEK 293T Gα16gust44 cells transfected with TAS2R46-H2; type: cell-based; details: TAS2R46-H2, truncated variant (premature stop codon)
# T2 construct: TAS2R46-H2, a truncated, six-transmembrane variant of the receptor; N-terminal signal for cell surface localisation (N); expressed in transfected cells; host or cells: HEK 293T cells stably expressing the G protein chimera Gα16gust44
# T2 sequence (P59540 1-249 limits assumed): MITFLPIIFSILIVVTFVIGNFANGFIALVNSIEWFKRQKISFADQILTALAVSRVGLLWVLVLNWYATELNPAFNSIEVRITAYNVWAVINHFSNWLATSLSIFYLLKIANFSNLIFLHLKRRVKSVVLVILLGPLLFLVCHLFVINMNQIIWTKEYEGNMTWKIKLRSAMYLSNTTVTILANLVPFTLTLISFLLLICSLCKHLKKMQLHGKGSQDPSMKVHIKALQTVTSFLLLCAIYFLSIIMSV
# Description: as §1, §2, §3
# TAS2R46-H3 = assay: Calcium imaging in HEK 293T Gα16gust44 cells transfected with TAS2R46-H3; type: cell-based, human; details: for threshold: first concentration eliciting significant receptor activation
# Description: as §1, §2, §3
# [2] = system: TAS2R30, -31, -43, and -46; assay: Calcium imaging functional assays, statements across TAS2R loci (variants not resolved); type: cell-based, human
# Description: as §1
# as §2, with “Six replicates were carried out for each bitter stimulus, on separate experimental days, with each replicate consisting of concentration series of each bitter tastant.” left out
# Prior to final analysis, fluorescence data from functional assays, expressed in relative fluorescence units (RFU), underwent three corrections. First, a correction calculated from baseline values was applied to compensate for well-to-well fluctuations. A second correction calculated from negative control values was applied to correct for receptor independent artefacts and signal drift. […]
# [3] = system: every known TAS2R in humans; design: method as in PMID 20022913; details: complete TAS2R family; cited from earlier work
compound,measurement,setting,value
amarogentin,"bitter taste recognition threshold, mode of distribution",[1]; 48 human subjects,40 nM
same,"concentration perceived as strongly bitter, fold range across subjects",[1]; gLMS strong intensity,less than 4 fold
same,"concentration perceived as weakly bitter, fold range across subjects",[1],17 fold
same,"concentration perceived as weakly bitter, mode",[1],50 nM
same,EC50,TAS2R30-H1,0.41 µM
same,maximum amplitude,TAS2R30-H1,0.50 ΔF/F
same,threshold,TAS2R30-H1,10 nM
same,EC50,TAS2R30-H2,0.39 µM
same,maximum amplitude,TAS2R30-H2,0.12 ΔF/F
same,threshold,TAS2R30-H2,300 nM
same,threshold,TAS2R43-H1,300 µM
same,threshold,TAS2R43-H2,300 µM
same,EC50,TAS2R46-H1,67 µM
same,maximum amplitude,TAS2R46-H1,0.57 ΔF/F
same,threshold,TAS2R46-H1,30 µM
same,receptor variant response,TAS2R46-H2,not activated at any concentration
same,threshold,TAS2R46-H3,100 µM
same,activation concentration of TAS2R43 relative to TAS2R30,[2]; fold higher than TAS2R30,3000 fold
same,TAS2Rs responsive in published receptor-agonist inventory,[3],"TAS2R1, -4, -39, -43, -46, -30, and -50"
CC(=O)O[C@@H]1C[C@]2(C)[C@H](CC[C@@H](O)[C@]2(C)O)[C@@](C=O)(C[C@@H](O)c2ccoc2)[C@@H]1C [cascarillin],"recognition threshold, fold range across subjects",[1]; 48 human subjects,17 fold
same,"concentration perceived as weakly bitter, fold range across subjects",[1],11 fold
same,receptor variant response,TAS2R30-H1,sensitive
same,receptor variant response,TAS2R30-H2,insensitive
same,receptor variant response,TAS2R46-H1,sensitive
same,receptor variant response,TAS2R46-H2,insensitive
same,receptor variant response,TAS2R46-H3,intermediate
same,minimum concentration required to elicit response in functional assays,[2]; TAS2R30 and -46 variants,30 µM
CC1=C[C@H]2[C@H]3[C@H](C(C)=C4[C@H]5OC(=O)[C@@H](C)[C@@H]5CC[C@](C)(O)[C@@H]43)[C@@]13[C@@H]2[C@@](C)(O)CC[C@H]1[C@H](C)C(=O)O[C@@H]13 [absinthin],"recognition threshold, fold range across subjects",[1]; 48 human subjects,40 fold
same,"concentration perceived as strongly bitter, fold range across subjects",[1]; gLMS strong intensity,5 fold
same,"concentration perceived as strongly bitter, mode",[1]; gLMS strong intensity,1.3 µM
same,"concentration perceived as weakly bitter, fold range across subjects",[1],15 fold
same,"concentration perceived as weakly bitter, mode",[1],390 nM
same,EC50,TAS2R30-H1,3.1 µM
same,maximum amplitude,TAS2R30-H1,0.41 ΔF/F
same,threshold,TAS2R30-H1,300 nM
same,EC50,TAS2R30-H2,1.3 µM
same,maximum amplitude,TAS2R30-H2,0.15 ΔF/F
same,threshold,TAS2R30-H2,1000 nM
same,EC50,TAS2R46-H1,11 µM
same,maximum amplitude,TAS2R46-H1,0.63 ΔF/F
same,threshold,TAS2R46-H1,3 µM
same,receptor variant response,TAS2R46-H2,no response at any concentration
same,EC50,TAS2R46-H3,14 µM
same,maximum amplitude,TAS2R46-H3,0.48 ΔF/F
same,threshold,TAS2R46-H3,10 µM
same,TAS2Rs responsive in published receptor-agonist inventory,[3],TAS2R30 and -46

# — paper PMC4583475, “Receptor Polymorphism and Genomic Structure Interact to Shape Bitter Taste Perception” (PLoS Genetics, 2015)
